Assay results taken from the Deep4Chem optical property database.
One block for each molecule: values may come before it.

Assay: solvent given as SMILES
[1] = in c1cc(-c2cccc(-n3c4ccccc4c4ccccc43)c2)cc(-n2c3ccccc3c3ccccc32)c1
[2] = in N#Cc1ccc2c(c1)c1ccccc1n2-c1cccc(-n2c3ccccc3c3ccccc32)c1

SMILES: CC(C)(C)c1ccc(-c2nnc(-c3c(-n4c5ccccc5c5ccccc54)c(-n4c5ccccc5c5ccccc54)c(-c4nnc(-c5ccc(C(C)(C)C)cc5)o4)c(-n4c5ccccc5c5ccccc54)c3-n3c4ccccc4c4ccccc43)o2)cc1
fluorescence lifetime (in Cc1ccccc1): 12.7 ns

SMILES: CNc1cccc2c1C(=O)c1ccccc1C2=O
fluorescence lifetime (in C1CCC2CCCCC2C1): 0.446 ns
fluorescence lifetime (in C1CCCCC1): 0.443 ns
fluorescence lifetime (in CC1CCCCC1): 0.445 ns
fluorescence lifetime (in CC#N): 0.204 ns
fluorescence lifetime (in CCC(C)CC): 0.444 ns
fluorescence lifetime (in CCCCCC): 0.451 ns
fluorescence lifetime (in CCOC(C)=O): 0.253 ns

SMILES: N#C/C(=C\c1ccc([N+](=O)[O-])cc1)c1nc(-c2ccccc2)cs1
fluorescence lifetime (in CC#N): 2.85 ns

SMILES: CCn1c2ccccc2c2cc(-c3cc(-c4ccc5c(c4)c4ccccc4n5CC)nc(-c4ccc(OC)cc4)n3)ccc21
fluorescence lifetime (in C1CCOC1): 1.63 ns

SMILES: O=P1(c2ccccc2)C(c2cc(C(F)(F)F)cc(C(F)(F)F)c2)=Cc2c3ccc4cccc5ccc(c6cc(-c7ccccc7)n1c26)c3c45 (configuration not stated)
fluorescence lifetime (in C1CCCCC1): 1.9 ns
fluorescence lifetime (in C1CCOC1): 3.1 ns
fluorescence lifetime (in C1COCCO1): 2.6 ns
fluorescence lifetime (in CC#N): 3.7 ns
fluorescence lifetime (in CC(C)=O): 3.6 ns
fluorescence lifetime (in CO): 3.8 ns
fluorescence lifetime (in Cc1ccccc1): 2.5 ns
fluorescence lifetime (in ClC(Cl)Cl): 2.4 ns
fluorescence lifetime (in ClCCl): 2.9 ns

SMILES: O=c1oc2ccccc2cc1-c1nc2ccccc2o1
fluorescence lifetime (in CO): 3.47 ns
fluorescence lifetime (in ClC(Cl)(Cl)Cl): 3.17 ns
fluorescence lifetime (in OCCO): 3.78 ns

SMILES: CCC1(CC)c2cc(B(c3c(C)cc(C)cc3C)c3c(C)cc(C)cc3C)ccc2-c2c1c1c(c3c2C(CC)(CC)c2cc(N(c4ccccc4)c4ccccc4)ccc2-3)C(CC)(CC)c2cc(B(c3c(C)cc(C)cc3C)c3c(C)cc(C)cc3C)ccc2-1
fluorescence lifetime (in C1CCOC1): 18.1 ns

SMILES: COC(=O)/C(C#N)=c1\s/c(=c2/s/c(=C(/C#N)C(=O)OC)c3cc(-c4ccccc4)sc23)c2sc(-c3ccccc3)cc12
fluorescence lifetime (in Cc1ccccc1): 2.82 ns

SMILES: N#Cc1cccc(C#N)c1-n1c2ccccc2c2cc(-c3ccc4c(c3)c3ccccc3n4-c3c(C#N)cccc3C#N)ccc21
fluorescence lifetime (in Cc1ccccc1): 28 ns

SMILES: O=c1c2ccccc2n2c3ccc(-c4ccccc4)cc3c(=O)c3cccc1c32
fluorescence lifetime [1]: 5.5 ns
fluorescence lifetime (in c1cc(-n2c3ccccc3c3ccccc32)cc(-n2c3ccccc3c3ccccc32)c1): 5.5 ns

SMILES: CN(C)c1ccc2nc(-c3ccc(C=O)cc3)sc2c1
fluorescence lifetime (in C1CCCCC1): 2.5 ns

SMILES: Cc1cc(C)c2cc3cc(C)ncc3cc2c1
fluorescence lifetime (in CCO): 18 ns

SMILES: C=CC12N=N[C@](C=C)(C3C4CCC(C4)C31)C1[C@@H]3CC[C@@H](C3)[C@H]12 (some centres not stated)
fluorescence lifetime (in CC#N): 268 ns

SMILES: C(=C\c1ccc(N(c2ccccc2)c2ccccc2)cc1)/c1ccccc1
fluorescence lifetime (in CC#N): 1.37 ns
fluorescence lifetime (in CCCCCC): 0.51 ns

SMILES: CCC1(CC)c2cc(B(c3c(C)cc(C)cc3C)c3c(C)cc(C)cc3C)ccc2-c2ccc(N(c3ccccc3)c3ccccc3)cc21
fluorescence lifetime (in C1CCOC1): 2.5 ns
fluorescence lifetime (in CC#N): 3.5 ns
fluorescence lifetime (in CC(C)=O): 2.9 ns
fluorescence lifetime (in CCCCCC): 1.6 ns
fluorescence lifetime (in CN(C)C=O): 3.5 ns
fluorescence lifetime (in Cc1ccccc1): 1.8 ns
fluorescence lifetime (in ClC(Cl)Cl): 2.2 ns

SMILES: COc1ccc(C2=C(c3ccc(OC)cc3)[Si](c3ccccc3)(c3ccccc3)c3ccccc32)cc1
fluorescence lifetime (in C1CCOC1): 1.37 ns

SMILES: CCCCCCCCC1(CCCCCCCC)c2ccccc2-c2ccc(-c3nnc(-c4ccc(-n5c6ccc(C(C)(C)C)cc6c6cc(C(C)(C)C)ccc65)cc4)o3)cc21
fluorescence lifetime (in Cc1ccccc1): 1.7 ns

SMILES: CN(C)/C=N\c1ccc2c3c(cccc13)C(=O)c1ccccc1-2
fluorescence lifetime (in ClC(Cl)Cl): 7.96 ns

SMILES: O=C(c1ccc(C(=O)c2ccc(N3c4ccccc4Oc4ccccc43)cc2)cc1)c1ccc(N2c3ccccc3Oc3ccccc32)cc1
fluorescence lifetime [1]: 26 ns

SMILES: N#Cc1cc(-n2c3ccccc3c3ccccc32)c(-n2c3ccccc3c3ccccc32)cc1C#N
fluorescence lifetime (in Cc1ccccc1): 28.5 ns

SMILES: COc1ccc(N(c2ccccc2)c2ccccc2)cc1
fluorescence lifetime (in Cc1ccccc1): 1.89 ns

SMILES: CCc1ccc(-c2nc(-c3ccc(-n4c5ccccc5c5ccccc54)cc3)cc(-c3ccc(-n4c5ccccc5c5ccccc54)cc3)n2)cc1
fluorescence lifetime (in C1CCOC1): 3.72 ns
fluorescence lifetime (in CN(C)C=O): 7.1 ns
fluorescence lifetime (in Cc1ccccc1): 2.05 ns
fluorescence lifetime (in ClC(Cl)Cl): 3.57 ns

SMILES: COc1ccc(-c2c3cc4ccccc4cc3c(C#Cc3ccccc3)c3cc4cc(C)sc4cc23)cc1
fluorescence lifetime (in ClCCl): 11.6 ns

SMILES: CCCCCCOc1cc(/C=C/c2cc(OCCCCCC)c(/C=C/c3cc(OCCCCCC)c(C=O)cc3OCCCCCC)cc2OCCCCCC)c(OCCCCCC)cc1C=O
fluorescence lifetime (in ClCCl): 1.77 ns

SMILES: Cc1nc(-c2ccc(-n3c4ccccc4c4ccccc43)cc2)cc(-c2ccc(-n3c4ccccc4c4ccccc43)cc2)n1
fluorescence lifetime (in C1CCOC1): 4.1 ns
fluorescence lifetime (in CN(C)C=O): 6.95 ns
fluorescence lifetime (in Cc1ccccc1): 2.05 ns
fluorescence lifetime (in ClC(Cl)Cl): 3.86 ns

SMILES: CCCCCCCCN1c2ccc(C#Cc3ccc(OC)cc3)cc2Sc2cc(C=O)ccc21
fluorescence lifetime (in C1CCOC1): 7.1 ns
fluorescence lifetime (in CC#N): 6.03 ns
fluorescence lifetime (in CCCCCC): 6.46 ns
fluorescence lifetime (in CO): 5.08 ns
fluorescence lifetime (in CS(C)=O): 6.6 ns
fluorescence lifetime (in Cc1ccccc1): 7.42 ns
fluorescence lifetime (in ClC(Cl)Cl): 5.65 ns

SMILES: COC(=O)c1cc(=O)n(C)c2cc(-c3ccc(OC)cc3)sc12
fluorescence lifetime (in ClCCl): 2.3 ns

SMILES: CCCCOc1ccc(-c2cc3c(o2)c(-c2ccc(OCCCC)cc2)c2n3[B-](F)(F)[N+]3=Cc4c(-c5ccc(OCCCC)cc5)c5oc(-c6ccc(OCCCC)cc6)cc5n4[B-](F)(F)[N+]3=C2)cc1
fluorescence lifetime (in ClCCl): 2.59 ns

SMILES: Nc1ccc2cc3ccccc3cc2c1
fluorescence lifetime (in C1CCCCC1): 33 ns

SMILES: CC1=CC(C)=[N+]2C1=C(C)c1cccn1[B-]2(F)F
fluorescence lifetime (in CCCCCC): 6.1 ns
fluorescence lifetime (in CO): 6.31 ns
fluorescence lifetime (in ClCCl): 5.93 ns

SMILES: COc1ccc(C#CC2=C3CCc4ccccc4C3=[O+][B-](F)(F)O2)cc1
fluorescence lifetime (in ClCCl): 1.49 ns

SMILES: CCN(CC)c1ccc2c(c1)oc(=O)c1cc3c(-c4ccccc4)nn(-c4ccccc4)c3nc12
fluorescence lifetime (in ClCCl): 17.9 ns

SMILES: CN1CCCc2cc(C3=Cc4cccc[n+]4[B-](F)(F)O3)ccc21
fluorescence lifetime (in ClC(Cl)Cl): 3 ns

SMILES: CC1(C)c2ccccc2N(c2ccc(-c3ccc(C#N)cc3)cc2)c2ccccc21
fluorescence lifetime [2]: 6.99 ns

SMILES: c1ccc(-c2nc(-c3ccccc3)nc(-c3ccc(-n4c5ccccc5c5c6c(ccc54)-c4ccccc4C6(c4ccccc4)c4ccccc4)cc3)n2)cc1
fluorescence lifetime (in O=P(c1ccccc1)(c1ccccc1)c1ccccc1Oc1ccccc1P(=O)(c1ccccc1)c1ccccc1): 3.3 ns

Other lines, results leading:

fluorescence lifetime (in CC#N): 10.3 ns
SMILES: [NH3+]C1(c2ccc3cc(O)ccc3c2)C2CC3CC(C2)CC1C3 (configuration not stated)

fluorescence lifetime (in ClCCl): 5.9 ns
SMILES: C[Si]1(C)c2ccc(-c3ccc(N(c4ccccc4)c4ccccc4)cc3)cc2C=Cc2cc(-c3ccc(N(c4ccccc4)c4ccccc4)cc3)ccc21

fluorescence lifetime (in CN(C)C=O): 4.1 ns
SMILES: CCCCCCCCCCCCN1C(=O)c2ccc3c4ccc5c6c(ccc(c7ccc(c2c37)C1=O)c64)C(=O)N(CCCCCCCCCCCC)C5=O

fluorescence lifetime (in ClCCl): 1.2 ns
SMILES: CC(C)c1cccc(C(C)C)c1N1C(=O)c2cccc3c(Oc4ccc(C(C)(C)c5ccccc5)cc4)ccc(c23)C1=O

fluorescence lifetime (in C1CCCCC1): 2.84 ns
fluorescence lifetime (in CCOC(C)=O): 0.81 ns
SMILES: CC1=[N+]2C(=C(c3ccccc3C)c3ccc(C)n3[B-]2(F)F)C=C1c1cc2n(c1)[B-](F)(F)[N+]1=CC=CC1=C2c1c(C)cc(C)cc1C

fluorescence lifetime (in C1CCOC1): 31 ns
SMILES: N#Cc1ccc(C=C(c2ccccc2)c2ccccc2)cc1

fluorescence lifetime (in CS(C)=O): 5.5 ns
SMILES: CCCCCCCCCCCCOc1cc2cc(N(C)C)ccc2cc1C#N

fluorescence lifetime (in ClC(Cl)Cl): 0.8 ns
SMILES: O=Cc1ccc(C#CC(C#Cc2ccc(C=O)s2)=Cc2ccc(C=C(C#Cc3ccc(C=O)s3)C#Cc3ccc(C=O)s3)cc2)s1

fluorescence lifetime [2]: 6.53 ns
SMILES: CC1(C)c2ccccc2N(c2ccc(-c3cccc(C#N)c3)cc2)c2ccccc21

fluorescence lifetime (in O): 3.6 ns
SMILES: CC[n+]1nc2cc3c4c(c2c2ccccc21)CCCN4CCC3

fluorescence lifetime (in ClC(Cl)Cl): 2.6 ns
SMILES: N=c1oc2cccc3c4c(-c5ccccc5)oc5cccc(c(c1-c1ccccc1)c23)c54

fluorescence lifetime [1]: 14.6 ns
fluorescence lifetime (in c1ccc2c(c1)c1ccccc1n2-c1ccc2sc3ccc(-n4c5ccccc5c5ccccc54)cc3c2c1): 26.4 ns
fluorescence lifetime (in c1ccc2c(c1)c1ccccc1n2-c1ccc2sc3ccc(-n4c5ccccc5c5cccnc54)cc3c2c1): 15.8 ns
fluorescence lifetime (in c1ccc2c(c1)c1cccnc1n2-c1ccc2sc3ccc(-n4c5ccccc5c5cccnc54)cc3c2c1): 19.5 ns
SMILES: Cc1cc(-n2c3ccccc3c3ccccc32)c(-n2c3ccccc3c3ccccc32)cc1C#N

fluorescence lifetime (in ClCCl): 4.8 ns
SMILES: N#Cc1ccc(C2=Cc3ccccc3P2(=O)c2ccccc2)cc1 (configuration not stated)

fluorescence lifetime (in CC1CCCCC1): 2.6 ns
fluorescence lifetime (in CC#N): 0.088 ns
SMILES: C(=C\c1ccnc2ccccc12)/c1c2ccccc2cc2ccccc12

fluorescence lifetime (in O): 0.038 ns
SMILES: Cc1cc(=O)oc2cc(/[NH+]=C/C=C3/C=C(C(=O)O)NC(C(=O)O)C3)ccc12 (configuration not stated)

fluorescence lifetime (in ClCCl): 4.27 ns
SMILES: C(#Cc1ccc2c(c1)c1cc(C#Cc3ccccc3)ccc1n2-c1cc2ccccc2c2ccccc12)c1ccccc1

fluorescence lifetime (in C1CCOC1): 1.1 ns
fluorescence lifetime (in C1COCCO1): 0.9 ns
fluorescence lifetime (in CC#N): 0.9 ns
fluorescence lifetime (in CCCCCO): 0.7 ns
fluorescence lifetime (in CCCCO): 0.8 ns
fluorescence lifetime (in CCCO): 0.7 ns
fluorescence lifetime (in CCO): 0.8 ns
fluorescence lifetime (in CO): 1.2 ns
fluorescence lifetime (in COCCOC): 1.3 ns
fluorescence lifetime (in ClC(Cl)Cl): 0.9 ns
fluorescence lifetime (in ClCCl): 1.3 ns
fluorescence lifetime (in OCCO): 1.1 ns
SMILES: COC(=O)c1c2ccccc2nc2ccccc12

fluorescence lifetime (in CO): 21.6 ns
SMILES: CCOC(=O)CCCCCn1c2ccccc2c(=O)c2cc3c(cc21)c(=O)c1ccccc1n3CCCCCC(=O)OCC

fluorescence lifetime (in ClCCl): 7 ns
SMILES: c1ccc(C2=C3c4ccccc4C4=[N+]3[B-]3(Oc5ccccc54)Oc4ccccc4-c4c5ccccc5c2n43)cc1 (configuration not stated)

fluorescence lifetime (in CC#N): 2.05 ns
fluorescence lifetime (in CS(C)=O): 1.09 ns
fluorescence lifetime (in ClCCl): 1.13 ns
SMILES: O=[N+]([O-])c1ccc(-c2nc3c(c4c2-c2ccccc2CC4)-c2ccccc2CC3)cc1

fluorescence lifetime (in ClC(Cl)Cl): 2.8 ns
SMILES: CN(C)c1ccc(C2=Cc3ccc4ccccc4[n+]3[B-](F)(F)O2)cc1

fluorescence lifetime (in CC#N): 10.2 ns
SMILES: C[n+]1ccc2c(ccc3c[n+](C)c4ccc5ccccc5c4c32)c1

fluorescence lifetime (in CC1CCCCC1): 2.48 ns
fluorescence lifetime (in CC#N): 1.38 ns
fluorescence lifetime (in CC(C)CC(C)(C)C): 2.38 ns
fluorescence lifetime (in CC(C)O): 2.94 ns
fluorescence lifetime (in CCCCCC): 1.52 ns
fluorescence lifetime (in CCCCO): 3.7 ns
fluorescence lifetime (in CCO): 2.9 ns
fluorescence lifetime (in CO): 2.04 ns
fluorescence lifetime (in OCC(O)CO): 7.53 ns
SMILES: COc1c2ccccc2c(-c2ccccc2)c2ccccc12
